Measured values published in US10375956B2, “Herbicidally active 2-(substituted-phenyl)-cyclopentane-1,3-dione compounds and derivatives thereof” (Syngenta Limited, priority 2013, dated 2019).

Assays:
Assay type in all cases: in vivo
Setaria faberi (SETFA) [1] = assay: Biological Example 3 glasshouse assay, post-emergence, various adjuvant systems; conditions: 8 g/ha, adjuvant 0.5% v/v TEHP + 1.0% v/v AMS + 12.5% v/v IPA
Protocol: (§1) Post-emergence foliar spray application, 200 L/ha, usually one or two replicates for the weeds (depending on application rate), and two replicates for soybean.
(§2) Standard warm conditions (tropical), in glasshouse. Specifically, the glasshouse bay conditions are 24° C./18° C. day/night; 16/8 hours light/dark; 65% humidity.
(§3) The herbicidal application takes place at the following growth stages for plants which include inter alia one or more of the following plants (usually the herbicidal application takes place on at least the following plants: DIGSA, ELEIN, SETFA, ZEAMX, GLXMA Nikko, and GLXMA TMG133, and often also either BRADC or BRAPP):
Setaria faberi (SETFA)—growth stage 12 or 13
(§4) Each test compound is applied with one of the following adjuvant systems (all percentages are final concentrations in the aqueous spray mixture):
(§5) Adjuvant system 2: 0.5% v/v Hexamoll™ DINCH**, 1.0% v/v AMS (ammonium sulphate) and 12.5% v/v IPA (isopropyl alcohol).
(§6) Adjuvant system 3: 0.5% v/v tris-(2-ethylhexyl)phosphate (“TEHP”), 1.0% v/v AMS (ammonium sulphate) and 12.5% v/v IPA (isopropyl alcohol).
(§7) Seeds of the weed (including volunteer) plants, typically including inter alia Digitaria sanguinalis (DIGSA), Eleusine indica (ELEIN), Setaria faberi (SETFA), Zea mays (ZEAMX, corn), and sometimes also [either Brachiaria decumbens (BRADC) or Brachiaria platyphylla (BRAPP)], are sown in seed trays (troughs) containing clay loam soil (pH 7.0, 2.2% organic matter, “Trough Mix A”); and soybean seed is sown in pots containing the same soil with 3 soybean seedlings per pot. The plants are sprayed with the test herbicide when they reach the growth stages mentioned above.
(§8) The test herbicidal solutions are prepared by mixing the appropriate aliquots of the test substance(s) and one of the adjuvant systems indicated above *** in deionised water to give the desired treatment concentration.
(§9) The herbicidal application is made as a foliar spray, using a tracksprayer. Following the herbicidal application, the plants are watered twice per day for the duration of the test.
(§10) A visual assessment of the % herbicidal damage is made 7 and 14 Days After herbicide Application (DAA) (or, in a minority of cases, 7 and 15 DAA), and the results are recorded as % visual herbicidal damage where 0%=no damage to plants and 100%=plant totally killed.
(§11) Compounds A2 and A7 were tested using the 0.5% v/v Hexamoll™ DINCH™+1.0% v/v AMS+12.5% v/v IPA adjuvant system. Compounds A11, A12, A14, A20 and A21 were tested using the 0.5% v/v tris-(2-ethylhexyl)phosphate (“TEHP”)+1.0% v/v AMS+12.5% v/v IPA adjuvant system.
(§12) The percentages of herbicidal damage/plant control, at 14 Days After herbicide Application (DAA) (or, in some cases, at 15 DAA), for the Compounds tested and for some of the plants tested, were in the following percentage ranges. For the tested compounds, the phytotoxicity results shown herein are generally the average of 2 or 3 repetitions (for the grassy weeds including corn) or the average of 2 repetitions (for soybean for most of the tested compounds). However, for Compound A2 on soybean there was 1 repetion only.

[2] = tested on: Glycine max (GLXMA, soybean) cultivar TMG133 (Roundup Ready glyphosate-tolerant); assay: as above; conditions: adjuvant 0.5% v/v TEHP + 1.0% v/v AMS + 12.5% v/v IPA, crop
Protocol: as §1, §2, §3
Glycine max (GLXMA, soybean) cultivar “TMG133”—which is Roundup Ready™ glyphosate-tolerant soybean cultivar TMG133 (typically available from Monsanto in Brazil)—growth stage: 1st trifoliate.
as §4, §5, §6, §7, §8, §9, §10, §11, §12
Glycine max (GLXMA, soybean) cultivar “TMG133” is Roundup Ready™ glyphosate-tolerant soybean cultivar TMG133, and is typically available from Monsanto in Brazil.

[3] = tested on: Zea mays (ZEAMX, corn/maize); assay: Test 1 glasshouse assay, pre-emergence herbicidal activity; conditions: 312 h, visual evaluation after 13 days, read-out: Percentage phytotoxicity ZEAMX
Summary of the method: (§13)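 Pots are sprayed pre-emergence, one day after sowing, with the technical active ingredient in an acetone/water mixture containing 0.5% Tween 20. After 13 days under controlled glasshouse conditions, damage is rated visually as percent phytotoxicity.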

[4] = tested on: Amaranthus retroflexus (AMARE); assay: as above; conditions: 312 h, visual evaluation after 13 days, read-out: Percentage phytotoxicity AMARE
Summary of the method: as §13

[5] = tested on: Alopecurus myosuroides (ALOMY); assay: as above; conditions: 312 h, visual evaluation after 13 days, read-out: Percentage phytotoxicity ALOMY
Summary of the method: as §13

[6] = tested on: Abutilon theophrasti (ABUTH); assay: as above; conditions: 312 h, visual evaluation after 13 days, read-out: Percentage phytotoxicity ABUTH
Summary of the method: as §13

[7] = tested on: Echinochloa crus-galli (ECHCG); assay: as above; conditions: 312 h, visual evaluation after 13 days, read-out: Percentage phytotoxicity ECHCG
Summary of the method: as §13

Setaria faberi (SETFA) [8] = assay: as above; conditions: 312 h, visual evaluation after 13 days, read-out: Percentage phytotoxicity SETFA
Summary of the method: as §13

[9] = tested on: Abutilon theophrasti (ABUTH); assay: Test 1 glasshouse assay, post-emergence herbicidal activity; conditions: 312 h, post-emergence (Example 1B Table 1), after 13 days, read-out: Percentage phytotoxicity ABUTH
Summary of the method: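 Plants sprayed post-emergence after 8 days' growth with active ingredient in acetone/water (50:50) plus 0.5% Tween 20; glasshouse at 24/16° C day/night, 14 h light, 65% humidity. Visual percentage phytotoxicity scored 13 days later (100% = total damage, 0% = none).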

[10] = tested on: Digitaria sanguinalis (DIGSA); assay: Biological Example 3 glasshouse assay, post-emergence, various adjuvant systems; conditions: 8 g/ha, adjuvant 0.5% v/v TEHP + 1.0% v/v AMS + 12.5% v/v IPA
Protocol: as §1, §2, §3
Digitaria sanguinalis (DIGSA)—growth stage 12 or 13
as §4, §5, §6, §7, §8, §9, §10, §11, §12

SMILES: C#CCC1CC(=O)C(c2c(Cl)cc(-c3ccc(Cl)cc3)cc2OC)C1=O (stereo not shown) [Compound A11, 2-[2-chloro-4-(4-chlorophenyl)-6-methoxyphenyl]-4-prop-2-ynylcyclopentane-1,3-dione]
- percentage control of Setaria faberi (Setaria faberi (SETFA) [1]; 14 DAA): 98%
- percentage phytotoxicity on Glycine max cultivar TMG133 ([2]; 120 g/ha, 14 DAA): 12.5%
- pest or weed control at 250 g/ha [3]: 100%
- pest or weed control at 250 g/ha [4]: 80%
- pest or weed control at 250 g/ha [5]: 100%
- pest or weed control at 250 g/ha [6]: 40%
- pest or weed control at 250 g/ha [7]: 100%
- pest or weed control at 250 g/ha (Setaria faberi (SETFA) [8]): 100%
- pest or weed control at 30 g/ha [9]: 30%
- pest or weed control at 250 g/ha [9]: 80%
- percentage control of Digitaria sanguinalis ([10]; 14 DAA): 99%

SMILES: C#CCC1CC(=O)C(c2c(Cl)cc(-c3ccc(F)cc3F)cc2OC)C1=O (stereo not shown) [Compound A12]
- percentage control of Setaria faberi (Setaria faberi (SETFA) [1]; 14 or 15 DAA): 95%
- percentage phytotoxicity on Glycine max cultivar TMG133 ([2]; 240 g/ha, 14 or 15 DAA): 15%
- pest or weed control at 250 g/ha [3]: 100%
- pest or weed control at 250 g/ha [4]: 100%
- pest or weed control at 250 g/ha [5]: 90%
- pest or weed control at 250 g/ha [6]: 80%
- pest or weed control at 250 g/ha [7]: 100%
- pest or weed control at 250 g/ha (Setaria faberi (SETFA) [8]): 100%
- pest or weed control at 30 g/ha [9]: 50%
- pest or weed control at 250 g/ha [9]: 80%
- percentage control of Digitaria sanguinalis ([10]; 14 or 15 DAA): 98.5%

SMILES: C#CCC1CC(=O)C(c2c(F)cc(-c3ccc(Cl)cc3)cc2OC)C1=O (stereo not shown) [Compound A14]
- percentage control of Setaria faberi (Setaria faberi (SETFA) [1]; 15 DAA): 95%
- percentage phytotoxicity on Glycine max cultivar TMG133 ([2]; 120 g/ha, 15 DAA): 5%
- pest or weed control at 250 g/ha [3]: 100%
- pest or weed control at 250 g/ha [4]: 90%
- pest or weed control at 250 g/ha [5]: 100%
- pest or weed control at 250 g/ha [6]: 20%
- pest or weed control at 250 g/ha [7]: 100%
- pest or weed control at 250 g/ha (Setaria faberi (SETFA) [8]): 100%
- pest or weed control at 62.5 g/ha ([9]; 62.5 g/ha): 0%
- pest or weed control at 250 g/ha [9]: 0%
- percentage control of Digitaria sanguinalis ([10]; 15 DAA): 85%

SMILES: C#CCC1CC(=O)C(c2c(F)cc(-c3ccc(F)cc3)cc2OC)C1=O (stereo not shown) [Compound A20, 2-[2-fluoro-4-(4-fluorophenyl)-6-methoxyphenyl]-4-prop-2-ynylcyclopentane-1,3-dione]
- percentage control of Setaria faberi (Setaria faberi (SETFA) [1]; 14 or 15 DAA): 90%
- percentage phytotoxicity on Glycine max cultivar TMG133 ([2]; 120 g/ha, 14 or 15 DAA): 10%
- pest or weed control at 250 g/ha [3]: 100%
- pest or weed control at 250 g/ha [4]: 70%
- pest or weed control at 250 g/ha [5]: 90%
- pest or weed control at 250 g/ha [6]: 70%
- pest or weed control at 250 g/ha [7]: 100%
- pest or weed control at 250 g/ha (Setaria faberi (SETFA) [8]): 100%
- pest or weed control at 30 g/ha [9]: 0%
- pest or weed control at 250 g/ha [9]: 60%
- percentage control of Digitaria sanguinalis ([10]; 14 or 15 DAA): 75%

SMILES: C#CCC1CC(=O)C(c2c(F)cc(-c3ccc(F)cc3F)cc2OC)C1=O (stereo not shown) [Compound A21]
- percentage control of Setaria faberi (Setaria faberi (SETFA) [1]; 14 or 15 DAA): 85%
- percentage phytotoxicity on Glycine max cultivar TMG133 ([2]; 120 g/ha, 14 or 15 DAA): 5%
- pest or weed control at 250 g/ha [3]: 100%
- pest or weed control at 250 g/ha [4]: 0%
- pest or weed control at 250 g/ha [5]: 80%
- pest or weed control at 250 g/ha [6]: 10%
- pest or weed control at 250 g/ha [7]: 90%
- pest or weed control at 250 g/ha (Setaria faberi (SETFA) [8]): 90%
- pest or weed control at 30 g/ha [9]: 0%
- pest or weed control at 250 g/ha [9]: 40%
- percentage control of Digitaria sanguinalis ([10]; 14 or 15 DAA): 45%
